Results on four compounds are retold here after ChEMBL document CHEMBL3217524, “The anti-tumor antibiotic PD 113,271 binds to microtubule-associated protein 1B (MAP1B)” (Medchemcomm, 2011).

Each structure is given as a SMILES string. pIC50, pKd: −log10 of the molar value. Values after ≈ are worked out from the molar mass of the structure shown. Active and inactive are the calls of the source.

Test [1] addresses Ribosomal L1 domain-containing protein 1 (Homo sapiens) (UniProt O76021). Nature of the test: Binding affinity to human ribosomal L1 domain containing protein (309 to 432) expressed in T7 phage after 1 hr by ELISA. A general note: In an ELISA, binding on a coated surface is turned into a signal by an enzyme label.
Test [2] addresses T1, Microtubule-associated protein 1B (Homo sapiens, UniProt P46821). The experiment in a line: Binding affinity to human MAP1B (582 to 705) expressed in T7 phage after 1 hr by ELISA.
For test [3], the target named is T1, Microtubule-associated protein 1B. The experiment in a line: Binding affinity to human recombinant MAP1B-HBR (589 to 790) expressed in Escherichia coli BL21(DE3) by surface plasmon resonance analysis. Background: SPR reads the build-up and loss of mass on a sensor chip optically.
Test [4] is described as follows: Inhibition of PP2A (unknown origin) by spectrophotometry. Details: species or system Homo sapiens.
Test [5] deals with Ehrlich. Nature of the test: Inhibition of topoisomerse-2 in mouse EAC cells. In kind it is cell-based.
Test [6] is described as follows: Cytotoxicity against human HCT8 cells. The test is classed as functional, cell-based. Particulars: HCT-8.
Test [7] has as its target T1, Microtubule-associated protein 1B. The experiment in a line: Binding affinity to human recombinant MAP1B-HBR (589 to 790) expressed in Escherichia coli BL21(DE3) assessed as inhibition of MAP1B-HBR-tubulin interaction at 1 to 20 uM by surface plasmon resonance analysis.
Test [8] has the same target. The experiment in a line: Binding affinity to MAP1B in human MCF7 cells assessed as protein complex at 1 uM after 24 hrs by DAPI staining-based immunofluorescence microscopy relative to control. The test is classed as cell-based.
Test [9] shares this target. The experiment in a line: Binding affinity to MAP1B in human MCF7 cells assessed as protein localization around perinuclear region at 1 uM after 24 hrs by DAPI staining-based immunofluorescence microscopy relative to control. The test is classed as cell-based.
Test [10] has as its target Microtubule-associated protein 1B (Rattus norvegicus) (UniProt P15205). The experiment in a line: Binding affinity to MAP1B in rat PC12 cells after 2 hrs by Western blotting analysis. The following applies: PC-12. The test is classed as cell-based.
For test [11], the system named is L1210. The experiment in a line: Cytotoxicity against mouse L1210 cells. The test is classed as functional, cell-based.

T1 sequence (P46821 2-2206 limits assumed): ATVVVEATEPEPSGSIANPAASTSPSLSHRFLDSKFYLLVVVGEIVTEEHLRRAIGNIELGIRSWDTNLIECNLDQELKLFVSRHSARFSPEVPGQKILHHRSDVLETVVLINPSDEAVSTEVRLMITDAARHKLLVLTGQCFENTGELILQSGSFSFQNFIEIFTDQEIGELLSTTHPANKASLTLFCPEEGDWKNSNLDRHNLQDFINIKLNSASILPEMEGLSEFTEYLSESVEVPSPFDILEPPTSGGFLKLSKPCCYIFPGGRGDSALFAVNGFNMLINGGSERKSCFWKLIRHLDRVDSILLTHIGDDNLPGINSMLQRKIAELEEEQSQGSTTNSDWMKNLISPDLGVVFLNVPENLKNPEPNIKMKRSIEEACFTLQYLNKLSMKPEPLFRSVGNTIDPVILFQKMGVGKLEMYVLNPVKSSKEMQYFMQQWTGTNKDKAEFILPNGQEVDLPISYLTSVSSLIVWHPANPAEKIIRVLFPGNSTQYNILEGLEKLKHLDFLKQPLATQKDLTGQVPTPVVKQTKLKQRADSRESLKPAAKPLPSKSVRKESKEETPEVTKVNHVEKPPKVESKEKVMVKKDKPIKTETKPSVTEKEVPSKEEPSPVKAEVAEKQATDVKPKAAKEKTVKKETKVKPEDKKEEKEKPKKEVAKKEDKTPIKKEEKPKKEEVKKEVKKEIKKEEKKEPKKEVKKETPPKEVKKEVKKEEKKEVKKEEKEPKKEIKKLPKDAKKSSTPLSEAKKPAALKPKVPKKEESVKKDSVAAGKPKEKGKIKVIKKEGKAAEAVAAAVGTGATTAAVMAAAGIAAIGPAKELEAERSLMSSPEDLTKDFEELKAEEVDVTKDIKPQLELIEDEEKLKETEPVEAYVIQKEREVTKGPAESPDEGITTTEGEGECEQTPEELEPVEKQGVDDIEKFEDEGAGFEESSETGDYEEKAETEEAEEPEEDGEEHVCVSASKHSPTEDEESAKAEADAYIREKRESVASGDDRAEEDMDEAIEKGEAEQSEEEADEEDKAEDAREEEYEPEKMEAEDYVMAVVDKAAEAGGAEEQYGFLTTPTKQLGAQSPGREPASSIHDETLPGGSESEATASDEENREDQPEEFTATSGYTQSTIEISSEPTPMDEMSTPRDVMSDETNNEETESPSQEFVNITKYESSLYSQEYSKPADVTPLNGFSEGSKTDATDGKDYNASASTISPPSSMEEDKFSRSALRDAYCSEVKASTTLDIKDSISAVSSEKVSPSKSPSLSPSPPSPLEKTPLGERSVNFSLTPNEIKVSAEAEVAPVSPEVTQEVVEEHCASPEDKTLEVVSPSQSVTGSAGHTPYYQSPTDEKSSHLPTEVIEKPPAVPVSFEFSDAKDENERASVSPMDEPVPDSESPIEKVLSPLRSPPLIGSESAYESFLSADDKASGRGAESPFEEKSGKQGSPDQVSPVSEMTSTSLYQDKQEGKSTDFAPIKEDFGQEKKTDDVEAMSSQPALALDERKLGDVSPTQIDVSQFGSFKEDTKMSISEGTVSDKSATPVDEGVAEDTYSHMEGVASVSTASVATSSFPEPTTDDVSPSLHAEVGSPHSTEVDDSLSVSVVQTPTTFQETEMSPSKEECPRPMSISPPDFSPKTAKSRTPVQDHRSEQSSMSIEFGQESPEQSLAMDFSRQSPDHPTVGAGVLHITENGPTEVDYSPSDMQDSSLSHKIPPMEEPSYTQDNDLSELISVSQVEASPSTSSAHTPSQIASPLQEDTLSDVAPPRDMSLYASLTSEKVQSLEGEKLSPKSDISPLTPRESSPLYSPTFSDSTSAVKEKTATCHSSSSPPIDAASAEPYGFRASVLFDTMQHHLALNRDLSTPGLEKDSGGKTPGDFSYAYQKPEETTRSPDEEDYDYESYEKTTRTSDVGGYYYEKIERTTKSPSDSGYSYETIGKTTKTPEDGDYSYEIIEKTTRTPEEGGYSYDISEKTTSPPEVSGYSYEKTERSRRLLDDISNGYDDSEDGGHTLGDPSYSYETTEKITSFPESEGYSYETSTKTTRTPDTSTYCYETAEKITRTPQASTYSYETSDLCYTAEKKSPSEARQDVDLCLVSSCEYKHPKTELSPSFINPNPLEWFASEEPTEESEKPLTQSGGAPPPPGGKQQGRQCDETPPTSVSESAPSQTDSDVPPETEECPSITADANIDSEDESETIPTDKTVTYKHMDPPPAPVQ
T1 sequence (P46821 2207-2468 limits assumed): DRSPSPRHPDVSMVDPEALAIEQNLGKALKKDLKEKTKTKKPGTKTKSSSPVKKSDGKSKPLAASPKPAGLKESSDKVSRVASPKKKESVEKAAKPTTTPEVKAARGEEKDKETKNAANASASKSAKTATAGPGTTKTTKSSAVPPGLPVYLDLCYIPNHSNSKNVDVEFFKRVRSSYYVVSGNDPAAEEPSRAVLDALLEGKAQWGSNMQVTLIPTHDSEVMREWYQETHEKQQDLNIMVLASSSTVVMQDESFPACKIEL
Sequence of Microtubule-associated protein 1B (Rattus norvegicus) (P15205 whole entry): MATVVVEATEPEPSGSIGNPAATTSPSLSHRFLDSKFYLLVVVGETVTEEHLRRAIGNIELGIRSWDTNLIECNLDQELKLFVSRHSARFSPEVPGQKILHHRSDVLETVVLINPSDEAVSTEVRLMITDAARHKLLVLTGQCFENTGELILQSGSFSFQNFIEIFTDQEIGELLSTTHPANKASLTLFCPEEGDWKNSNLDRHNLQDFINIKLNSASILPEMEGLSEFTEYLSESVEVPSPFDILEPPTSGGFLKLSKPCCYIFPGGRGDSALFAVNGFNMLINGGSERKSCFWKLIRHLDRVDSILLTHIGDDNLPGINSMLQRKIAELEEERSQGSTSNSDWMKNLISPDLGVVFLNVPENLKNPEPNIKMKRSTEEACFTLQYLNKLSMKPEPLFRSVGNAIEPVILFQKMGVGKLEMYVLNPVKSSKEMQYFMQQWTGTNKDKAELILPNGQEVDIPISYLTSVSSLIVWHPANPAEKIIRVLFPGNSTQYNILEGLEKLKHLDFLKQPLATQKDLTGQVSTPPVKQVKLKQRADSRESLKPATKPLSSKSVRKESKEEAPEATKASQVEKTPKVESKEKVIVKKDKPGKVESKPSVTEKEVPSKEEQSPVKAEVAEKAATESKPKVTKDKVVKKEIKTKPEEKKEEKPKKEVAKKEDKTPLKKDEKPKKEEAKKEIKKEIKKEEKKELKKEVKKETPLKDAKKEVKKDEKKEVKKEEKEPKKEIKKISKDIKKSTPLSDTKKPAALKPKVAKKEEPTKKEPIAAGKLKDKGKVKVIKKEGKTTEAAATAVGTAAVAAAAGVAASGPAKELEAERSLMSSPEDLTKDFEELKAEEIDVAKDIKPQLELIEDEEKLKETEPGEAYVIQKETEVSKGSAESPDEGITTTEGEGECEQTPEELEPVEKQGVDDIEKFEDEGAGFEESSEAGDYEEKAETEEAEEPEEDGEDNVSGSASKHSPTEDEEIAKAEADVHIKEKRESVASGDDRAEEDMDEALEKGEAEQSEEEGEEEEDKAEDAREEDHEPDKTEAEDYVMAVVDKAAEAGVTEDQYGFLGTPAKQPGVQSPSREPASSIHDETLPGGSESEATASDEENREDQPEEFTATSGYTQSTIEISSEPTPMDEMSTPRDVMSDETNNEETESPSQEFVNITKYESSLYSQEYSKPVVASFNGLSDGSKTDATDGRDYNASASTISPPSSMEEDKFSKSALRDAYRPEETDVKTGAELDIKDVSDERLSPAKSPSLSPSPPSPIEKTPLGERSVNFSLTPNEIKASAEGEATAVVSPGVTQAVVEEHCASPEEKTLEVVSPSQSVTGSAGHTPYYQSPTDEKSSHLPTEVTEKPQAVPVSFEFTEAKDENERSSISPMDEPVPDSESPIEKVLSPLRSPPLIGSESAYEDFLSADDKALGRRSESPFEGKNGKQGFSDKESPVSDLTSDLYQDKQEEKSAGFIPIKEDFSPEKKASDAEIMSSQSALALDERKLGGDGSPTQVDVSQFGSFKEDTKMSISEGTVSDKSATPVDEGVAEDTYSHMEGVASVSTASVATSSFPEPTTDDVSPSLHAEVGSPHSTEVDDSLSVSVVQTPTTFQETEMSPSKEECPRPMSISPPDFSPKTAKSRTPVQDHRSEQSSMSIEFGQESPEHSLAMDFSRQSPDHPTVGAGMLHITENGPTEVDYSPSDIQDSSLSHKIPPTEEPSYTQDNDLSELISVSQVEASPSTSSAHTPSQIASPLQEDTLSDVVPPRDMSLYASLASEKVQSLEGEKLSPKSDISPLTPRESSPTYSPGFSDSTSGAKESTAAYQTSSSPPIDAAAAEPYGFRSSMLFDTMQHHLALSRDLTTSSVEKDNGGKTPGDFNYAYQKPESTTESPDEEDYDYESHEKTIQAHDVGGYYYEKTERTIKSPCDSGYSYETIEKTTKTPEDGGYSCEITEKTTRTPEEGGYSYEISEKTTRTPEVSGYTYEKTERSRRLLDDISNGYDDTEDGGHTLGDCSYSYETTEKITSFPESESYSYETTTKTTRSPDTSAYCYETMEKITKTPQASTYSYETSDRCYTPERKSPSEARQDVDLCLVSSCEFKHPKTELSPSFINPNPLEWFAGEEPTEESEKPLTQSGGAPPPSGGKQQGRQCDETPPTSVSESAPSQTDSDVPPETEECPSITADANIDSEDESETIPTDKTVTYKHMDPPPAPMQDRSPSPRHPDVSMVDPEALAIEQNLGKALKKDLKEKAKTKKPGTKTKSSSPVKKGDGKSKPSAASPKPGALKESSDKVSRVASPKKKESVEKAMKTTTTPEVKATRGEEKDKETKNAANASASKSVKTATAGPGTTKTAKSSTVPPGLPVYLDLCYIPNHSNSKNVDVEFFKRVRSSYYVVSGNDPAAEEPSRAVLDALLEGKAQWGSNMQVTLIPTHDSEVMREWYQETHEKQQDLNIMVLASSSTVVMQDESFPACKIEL

As for `C[C@@](O)(/C=C/[C@@H]1OC(=O)C=C[C@@H]1OCc1ccc(OCCOCCOCc2cn(CCOCCNC(=O)CCCC[C@@H]3SC[C@@H]4NC(=O)N[C@@H]43)nn2)cc1)[C@@H](C[C@@H](O)\C=C/C=C\C=C\CO)OP(=O)(O)O`, the outcome in test [1] and in test [2] was Active. Besides, the pKd – broadly, the negative decadic logarithm of the Kd, by convention in mol/L – in test [3] was 6.68.

Turning to `C[C@@](O)(/C=C/[C@H]1CC=CC(=O)O1)[C@@H](C[C@@H](O)\C=C/C=C\C=C\CO)OP(=O)(O)O` [FOSTRIECIN], the pIC50 (commonly the IC50 on a negative log10 scale, so that one unit is a factor of ten) was 8.82 in test [4] and 5.29 in test [6]. For the same compound, inhibition of growth in [5] (MIC) required 50 µM (≈ 21.5 µg/mL).

`O=C(CCCC[C@@H]1SC[C@@H]2NC(=O)N[C@@H]21)NCCOCCn1cc(COCCOCCOc2ccc(COP(=O)(O)O)cc2)nn1`: in [1], the outcome was Active. Besides, the result in [2] was inactive.

For the compound `C[C@@](O)(/C=C/[C@@H]1OC(=O)C=C[C@@H]1O)[C@@H](C[C@@H](O)\C=C/C=C\C=C\CO)OP(=O)(O)O`, the result in test [7], in test [8], in test [9] and in [10] was Active. Also, in test [5], the MIC (commonly the smallest concentration in the dilution series that meets the test's criterion for growth inhibition) stood at 12.5 µM (≈ 5.58 µg/mL). Also, the results for the pIC50 in [6] and in test [11] were 5.05 and 5.74, respectively.
